Laboratory results: patent US11267809B2, “BAF complex modulating compounds and methods of using the same” (THE BOARD OF TRUSTEES OF THE LELAND STANFORD JUNIOR …, priority 2017, dated 2022)

Columns and labels:
[1] = system: ACHN renal clear cell carcinoma cell line; assay: Synergy viability assay, ACHN; format: cell-based, human; conditions: with VE-821, PBRM1 mutant line
Description: In ARID1A-deficient tumors, ATR inhibition is thought to trigger premature mitotic entry and chromosome instability that cannot be resolved, resulting in mitotic catastrophe^27. […] We sought to assess whether generic BAF inhibition might sensitize a host of cancers to ATR inhibition. We tested the efficacy of BAFi and ATRi on nine additional human cancer cell lines including seven Breast cancer cell lines (HCC1143, HCC1954, HCC1187, MDAMB-468, MDA-MB-436, Cal-51, MCF-7) and two renal clear cell carcinoma cell lines (A-704, and ACHN). Cal-51 and MCF-7 are both considered aggressive, highly mutated breast cancer cell lines with numerous COSMIC Census gene mutations (FIG. 10). HCC1143 and MDA-MB-468 are sporadic basal-likecancers, HCC1187 is a triple-negative breast cancer, and HCC1954 and MDA-MB-436 are BRCA1 mutant breast cancers which harbor single driver mutations. To assess synergy, each cell line was treated with 5 doses of VE-821 (1.25 uM-20 uM) and 5 doses of Baficillin1 (1.25 uM-20 uM), both independently and with all possible combinations. Like HCT-116 cells, Baficillin1 sensitized MCF-7 and Cal-51 cells lines to treatment with VE-821 (FIG. 6a).
Viability assays were performed in 384-well plates. Cells were plated at 500 cells/well. […] After 5 days, cellular viability was measured using CellTitre blue, as described by the manufacturer.

HCT116 ARID1A(+/+) cells = assay: Cell cycle analysis after double thymidine block synchronization; format: cell-based, human
Procedure: To investigate this, we synchronized cells in the early G1/S phase and then tracked their progression through the cell cycle upon release into media containing BAFi. To assess the full cell cycle, time points were collected beginning at early G0/G1 of the second cycle following release from thymidine block. […] This is consistent with our observation that BAFi independently has minimal toxicity or effects on proliferation. […] Further, we observe that when BAFi cells are treated with VE-821, their decreased entry and slowed progression through S Phase results in an inability to successfully complete their transition through the cell cycle, akin to knockout of ARID1A. […]
(§1) For hour-by-hour analysis, cells were collected, rinsed with PBS, and vortexed while adding 1mL ice cold 70% ethanol. […] Individual cells were gated based on forward and side scatter, auto fluorescent cells were omitted, and remaining cells were then analyzed for propidium iodide levels. To determine the percent of cells in each phase, DNA content histograms histograms were analyzed using R-package “mixtools” EM algorithm for mixtures of univariate normals. The areas of each mixed normal distribution were calculated to represent the total number of cells in each phase of the cell cycle. […] ESCs were incubated with BrdU for 1 h and the percent of cells in G2/M, stained with 7-AAD and analyzed on a BD FACScan.

mESCs = assay: Toxicity in mouse embryonic stem cells (cell cycle arrest); format: cell-based
Procedure: From our initial Bmi1 screen, we chose 8 representative compounds to compare to the lead candidate which were either commercially available, or comprised of the same oxadiazacyclodecone 12-member macrocyclic stereoisomer backbone as Baficillin1. […] To examine a structure-activity-relationship of the compounds, HCT116 cells were then treated with increasing doses of VE-821 (1 uM-30 uM) and increasing doses of the putative inhibitors (1 uM-30 uM), both independently and with all possible combinations followed by quantification of synergy (FIG. 4c-h).
FIG. 4: Structure Activity Relationship of Putative BAF Inhibitors. […]
as §1

[2] = system: HCT116 cells infected with shRNA lentivirus targeting ARID2; assay: Synergy viability assay, HCT116 with shARID2 knockdown; format: cell-based, human; conditions: with VE-821, 5 days
Description: SMARCA4, the primary target of our original screen, is present in both human BAF and PBAF complexes in cancer^12. PBAF complexes differ from BAF complexes by incorporation of specific subunits. Specifically, PBAF complexes contain ARID2 (as opposed to ARID1A/B), PHF10 (BAF45a) (as opposed to […] (BAF45d)), PBRM1, and lack the BAF-specific subunit SS18. PBAF specific subunits are also frequently mutated in cancer, specifically renal clear cell carcinomas and cholangiocarcinomas^33-36. To assess whether the lead compound is targeting BAF, PBAF complexes, or both, we constitutively knocked down ARID1A or ARID2 by lentiviral transduction of HCT116 cells and compared the BAFi/ATRi synergy to the wild-type (ARID1A+/+). […] Further, upon knockdown of ARID1A or ARID2 (FIG. 3b), the synergistic effect observed between Baficillin1 and VE-821 was ablated upon loss of ARID1A (FIG. 3e) (CIshARID1A=1.48±0.14), but not loss of shARID2 (CIshARID2=0.42±0.04) (FIG. 3c-e).
Viability assays were performed in 384-well plates. Cells were plated at 500 cells/well. Each drug was administered in 5-doses with 4 replicates per plate, and each 5×5 drug combination was administered with 8 replicates per plate, 24 hours after seeding. […] After 5 days, cellular viability was measured using CellTitre blue, as described by the manufacturer. […]

SMILES: CO[C@H]1CN(C)C(=O)c2cc(NC(=O)NC(C)C)ccc2OC[C@H](C)N(Cc2ccc(-c3ccccn3)cc2)C[C@@H]1C [Baficillin1]
- combinatorial effects of BAFi/ATRi [1]: antagonism
- S/G2 crossover time (HCT116 ARID1A(+/+) cells; 10 uM Baficillin1 in combination with ATRi (VE-821 10 uM)): ~7.5 h
- cell cycle rate (HCT116 ARID1A(+/+) cells; Baficillin1 10 uM alone): ~11 hr per cycle
- toxicity in mESCs (mESCs): largely non-toxic
- combination index (CI shARID2) [2]: 0.42±0.04
